Measured values from patent US20250179047A1, “5-[7-(3,4-DIHYDRO-1H-ISOQUINOLINE-2-CARBONYL)-1,2,3,4 TETRAHYDROISOQUINOLIN-6-YL]-1H-PYRROLE-3-CARBOXAMIDE DERIVATIVES, PHARMACEUTICAL COMPOSITIONS CONTAINING THEM AND THEIR USES AS PRO-APOPTOTIC AGENTS” (LES LABORATOIRES SERVIER, priority 2022, published 2025).
pIC50, pKi: −log10 of the molar value.

Columns and labels:
CYP3A4 = CYP3A4 (Homo sapiens (Human), UniProt P08684); test: CYP3A4 inhibition determination in hepatic human microsomes; format: in vitro ADME; settings: LC/MS-MS of specific metabolite
Description: The inhibitory potential was determined on CYP3 Å4 enzyme using hepatic human microsomes. A range of concentrations (adapted based on the solubility) of the tested compound were incubated in presence of a substrate having a specific metabolite of CYP3 Å4 enzyme.
Then, the formation of the metabolite was quantified using LC/MS-MS analysis and a curve corresponding to the concentration of the metabolite in function of the concentration of the test compound allowed to the calculation of the IC50 value.

BCL2 D103Y = BCL2 D103Y (Homo sapiens, UniProt P10415, D103Y); test: TR-FRET competitive binding assay, BCL2 D103Y; settings: Ki determined from IC50, read-out: TR_FRET EKI_Bcl2 D103Y
Procedure, shortened: (§1)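 Ki derived from IC50 (11-point dilution, 520/495 nm emission ratio) for displacing a fluorescein-labelled PUMA peptide (2 or 20 nM). Target was 0.5 nM E. coli-expressed Halo-tagged BCL2 (1-207) or BCLXL (2-196), terbium-labelled on Halo. Incubation 2 h at 23°C in pH 7.5 Hepes with 150 mM NaCl and 5% DMSO.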

BCLXL WT = BCLXL WT (Homo sapiens (Human), UniProt Q07817); test: TR-FRET competitive binding assay, BCLXL WT; settings: for pKi: BCLXL WT, Ki determined from IC50, read-out: TR_FRET EKI BclxL; for TR_FRET EKI BCLxL/WT selectivty ratio: ratio Ki BCLxL / Ki BCL2 WT
Procedure, shortened: as §1

KMS-12-PE Bcl-2 G101V = test: In vitro cytotoxicity CellTiter-Glo 48 h, KMS-12-PE Bcl-2 G101V; format: cell-based; settings: for Ratio (G101V/WT): C50 KMS-12-PE Bcl-2 G101V over C50 KMS-12-PE Bcl-2 WT; for IC50: Homo sapiens, KMS-12-PE, 48 h, CellTiter-Glo, C50 = concentration needed to reach 50% of the cellular viability
Procedure, shortened: (§2)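 KMS-12-PE myeloma cells lentivirally transduced with Bcl-2 WT or G101V (TagRFP-sorted), exposed to compound 11-point dose-response for 48 h at 37 °C, 5% CO2. Viability read by CellTiter-Glo ATP luminescence; C50 is the concentration giving 50% cellular viability.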

KMS-12-PE Bcl-2 WT = test: In vitro cytotoxicity CellTiter-Glo 48 h, KMS-12-PE Bcl-2 WT; format: cell-based; settings: Homo sapiens, KMS-12-PE, C50 = concentration needed to reach 50% of the cellular viability
Procedure, shortened: as §2

BCL2 WT = BCL2 WT (Homo sapiens (Human), UniProt P10415); test: TR-FRET competitive binding assay, BCL2 WT; settings: Ki determined from IC50, read-out: TR_FRET EKI_Bcl2 WT
Procedure, shortened: as §1

BCL2 G101V [1] = biological target: BCL2 G101V (Homo sapiens, UniProt P10415, G101V); test: TR-FRET competitive binding assay, BCL2 G101V; settings: BCL2 G101V; Ki determined from IC50; read-out: TR_FRET EKI_Bcl2 G101V
Procedure, shortened: as §1

BCL2 G101V [2] = test: TR-FRET competitive binding assay, BCL2 G101V; design: species or system human; settings: ratio Ki BCL2 G101V / Ki BCL2 WT
Procedure, shortened: as §1

BCL2 D111A = BCL2 D111A (Homo sapiens, UniProt P10415, D111A); test: TR-FRET competitive binding assay, BCL2 D111A; settings: Ki determined from IC50, read-out: TR_FRET EKI_Bcl2 D111A
Procedure, shortened: as §1

BCL2 F104I = BCL2 F104I (Homo sapiens, UniProt P10415, F104I); test: TR-FRET competitive binding assay, BCL2 F104I; settings: Ki determined from IC50, read-out: TR_FRET EKI_Bcl2 F104I
Procedure, shortened: as §1

Chain of BCLXL WT (Q07817 other isoform, or with tags, fused parts or gaps): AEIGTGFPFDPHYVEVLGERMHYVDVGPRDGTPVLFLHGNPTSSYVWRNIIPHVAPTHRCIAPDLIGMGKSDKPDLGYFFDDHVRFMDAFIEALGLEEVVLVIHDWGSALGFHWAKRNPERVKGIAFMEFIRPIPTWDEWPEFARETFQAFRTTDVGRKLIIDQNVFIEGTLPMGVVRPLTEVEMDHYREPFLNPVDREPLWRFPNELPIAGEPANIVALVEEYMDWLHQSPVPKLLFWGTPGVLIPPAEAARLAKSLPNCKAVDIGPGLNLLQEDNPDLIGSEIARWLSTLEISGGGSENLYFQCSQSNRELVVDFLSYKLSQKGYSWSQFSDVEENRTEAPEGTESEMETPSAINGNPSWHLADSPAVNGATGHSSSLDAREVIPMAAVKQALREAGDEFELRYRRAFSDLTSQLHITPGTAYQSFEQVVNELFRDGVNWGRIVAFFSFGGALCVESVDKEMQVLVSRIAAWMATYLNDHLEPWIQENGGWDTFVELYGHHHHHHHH
Chain of CYP3A4 (P08684 whole entry): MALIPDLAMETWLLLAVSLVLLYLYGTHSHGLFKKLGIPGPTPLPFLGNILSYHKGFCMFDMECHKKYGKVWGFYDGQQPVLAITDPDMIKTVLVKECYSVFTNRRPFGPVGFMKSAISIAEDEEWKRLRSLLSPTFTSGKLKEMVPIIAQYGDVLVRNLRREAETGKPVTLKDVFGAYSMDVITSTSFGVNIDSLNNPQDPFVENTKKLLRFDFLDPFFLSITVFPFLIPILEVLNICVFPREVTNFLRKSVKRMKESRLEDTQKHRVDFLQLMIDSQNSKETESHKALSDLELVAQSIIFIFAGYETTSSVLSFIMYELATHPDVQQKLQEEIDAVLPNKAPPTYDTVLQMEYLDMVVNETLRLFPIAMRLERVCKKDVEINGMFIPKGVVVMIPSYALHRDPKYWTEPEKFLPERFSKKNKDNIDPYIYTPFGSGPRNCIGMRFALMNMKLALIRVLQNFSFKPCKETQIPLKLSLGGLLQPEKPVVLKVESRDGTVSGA

Compound	pIC50 (CYP3A4)	pKi (BCL2 D103Y)	pKi (BCLXL WT)	TR_FRET EKI BCLxL/WT selectivty ratio (BCLXL WT)	Ratio (G101V/WT) (KMS-12-PE Bcl-2 G101V)	IC50 (KMS-12-PE Bcl-2 G101V) [µM]	IC50 (KMS-12-PE Bcl-2 WT) [µM]	pKi (BCL2 WT)	pKi (BCL2 G101V [1])	TR_FRET EKI G101V/WT selectivty ratio (BCL2 G101V [2])	pKi (BCL2 D111A)	pKi (BCL2 F104I)
Cc1c(N(C(=O)c2cc(-c3cc4c(cc3C(=O)N3Cc5ccccc5C[C@H]3C)CN(C(=O)c3ccccc3)CC4)n(C)c2C)c2ccc(O)cc2)cc(C#N)n1C [Example 25, 5-{2-benzoyl-7-[(3R)-3-methyl-1,2,3,4-tetrahydroisoquinoline-2-carbonyl]-1,2,3,4-tetrahydroisoquinolin-6-yl}-N-(5-cyano-1,2-dimethyl-1H-pyrrol-3-yl)-N-(4-hydroxyphenyl)-1,2-dimethyl-1H-pyrrole-3-carboxamide]	4.92	9.32	8.49	18.8	12.4	0.0778	0.0063	9.77	8.89	7.6	–	–
Cc1c(N(C(=O)c2cc(-c3cc4c(cc3C(=O)N3Cc5ccccc5C[C@H]3CN3CCCCC3)CN(C(=O)Cc3ccc(OCCN5CCOCC5)cc3)CC4)n(C)c2C)c2ccc(O)cc2)cc(C#N)n1C [Example 67, N-(5-cyano-1,2-dimethylpyrrol-3-yl)-N-(4-hydroxyphenyl)-1,2-dimethyl-5-[2-(2-{4-[2-(morpholin-4-yl)ethoxy]phenyl}acetyl)-7-{[(3S)-3-(piperidin-1-ylmethyl)-3,4-dihydro-1H-isoquinolin-2-yl]carbonyl}-3,4-dihydro-1H-isoquinolin-6-yl]pyrrole-3-carboxamide]	< 5.30	9.80	8.59	68.4	5.2	0.0562	0.0113	10.40	9.70	6.3	10.05	9.64
Cc1c(N(C(=O)c2cc(-c3cc4c(cc3C(=O)N3Cc5ccccc5C[C@H]3CN3CCCC3)CN(C(=O)Cc3ccc(OCCN(C)C5CC5)cc3F)CC4)n(C)c2C)c2ccc(O)cc2)cc(C#N)n1C [Example 101, N-(5-cyano-1,2-dimethylpyrrol-3-yl)-5-{2-[2-(4-{2-[cyclopropyl(methyl)amino]ethoxy}-2-fluorophenyl)acetyl]-7-{[(3S)-3-(pyrrolidin-1-ylmethyl)-3,4-dihydro-1H-isoquinolin-2-yl]carbonyl}-3,4-dihydro-1H-isoquinolin-6-yl}-N-(4-hydroxyphenyl)-1,2-dimethylpyrrole-3-carboxamide]	< 5.30	10.15	8.72	105.6	4.86	0.0806	0.0166	10.70	10.00	4.7	–	–
